Assay results published in PubChem BioAssay (NCI).
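How tested: cells in 96-well plates exposed to compound for 48 hours at five concentrations. GI50 is the concentration that inhibits growth by half. Definition used: TGI = concentration required for complete inhibition of growth.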

Legend:
Assay in all cases: inhibition of tumour cell growth, NCI panel, 48 h
MALME-3M melanoma = test system: MALME-3M melanoma
NCI-H460 lung = test system: NCI-H460 lung
NCI-H522 lung = test system: NCI-H522 lung
NCI/ADR-RES ovarian = test system: NCI/ADR-RES ovarian
PC-3 prostate = test system: PC-3 prostate
RXF 393 renal = test system: RXF 393 renal
SF-268 CNS = test system: SF-268 CNS
SF-295 CNS = test system: SF-295 CNS
SK-MEL-2 melanoma = test system: SK-MEL-2 melanoma
SK-OV-3 ovarian = test system: SK-OV-3 ovarian

C=C1C(=O)O[C@H]2[C@H]1CC/C(CNC(=O)/C=C/c1cc(OC)c(OC)c(OC)c1)=C\CC[C@@]1(C)O[C@@H]21
GI50 (MALME-3M melanoma): 1.34 µM
TGI (MALME-3M melanoma): 3.44 µM
GI50 (NCI-H460 lung): 9.19 µM
TGI (NCI-H460 lung): 24.5 µM
GI50 (NCI-H522 lung): 0.232 µM
TGI (NCI-H522 lung): 1.1 µM
GI50 (NCI/ADR-RES ovarian): 24.4 µM
TGI (NCI/ADR-RES ovarian): > 100 µM
GI50 (PC-3 prostate): 6.24 µM
TGI (PC-3 prostate): 20 µM
GI50 (RXF 393 renal): 0.298 µM
TGI (RXF 393 renal): 1.88 µM
GI50 (SF-268 CNS): 3.59 µM
TGI (SF-268 CNS): 15.6 µM
GI50 (SF-295 CNS): 4.61 µM
TGI (SF-295 CNS): 18.2 µM
GI50 (SK-MEL-2 melanoma): 1.73 µM
TGI (SK-MEL-2 melanoma): 7.18 µM
GI50 (SK-OV-3 ovarian): 17.2 µM
TGI (SK-OV-3 ovarian): 33.3 µM

O=c1[nH]nnc2c1ncn2C1OC(CO)C(O)C1O (stereo not given)
GI50 (MALME-3M melanoma): 7.25 µM
TGI (MALME-3M melanoma): > 100 µM
GI50 (NCI-H460 lung): 2.82 µM
TGI (NCI-H460 lung): > 100 µM
GI50 (NCI-H522 lung): 6.49 µM
TGI (NCI-H522 lung): > 100 µM
GI50 (NCI/ADR-RES ovarian): 7.74 µM
TGI (NCI/ADR-RES ovarian): > 100 µM
GI50 (PC-3 prostate): 2.93 µM
TGI (PC-3 prostate): > 100 µM
GI50 (RXF 393 renal): 14.1 µM
TGI (RXF 393 renal): > 100 µM
GI50 (SF-268 CNS): 19.1 µM
TGI (SF-268 CNS): > 100 µM
GI50 (SF-295 CNS): 1.65 µM
TGI (SF-295 CNS): 47 µM
GI50 (SK-MEL-2 melanoma): 0.707 µM
TGI (SK-MEL-2 melanoma): 12.2 µM
GI50 (SK-OV-3 ovarian): 0.881 µM
TGI (SK-OV-3 ovarian): > 100 µM

CCOC(=O)Nc1ccc2c(c1)/C(=N\NC(N)=S)c1ccccc1-2
GI50 (MALME-3M melanoma): 9.23 µM
TGI (MALME-3M melanoma): 33.4 µM
GI50 (NCI-H460 lung): 4.33 µM
TGI (NCI-H460 lung): 23.1 µM
GI50 (NCI-H522 lung): 3.84 µM
TGI (NCI-H522 lung): 12.7 µM
GI50 (NCI/ADR-RES ovarian): 2.75 µM
TGI (NCI/ADR-RES ovarian): 9.4 µM
GI50 (PC-3 prostate): 4.44 µM
TGI (PC-3 prostate): 24.8 µM
GI50 (RXF 393 renal): 1.93 µM
TGI (RXF 393 renal): 4.6 µM
GI50 (SF-268 CNS): 6.14 µM
TGI (SF-268 CNS): 39.9 µM
GI50 (SF-295 CNS): 2.37 µM
TGI (SF-295 CNS): 7.59 µM
GI50 (SK-MEL-2 melanoma): 4.95 µM
TGI (SK-MEL-2 melanoma): 15.8 µM
GI50 (SK-OV-3 ovarian): 11.7 µM
TGI (SK-OV-3 ovarian): 44.8 µM

COc1ccc2[nH]cc(-c3ccc(-c4c[nH]c5ccc(OC)cc45)s3)c2c1
GI50 (MALME-3M melanoma): 9.13 µM
TGI (MALME-3M melanoma): 22.4 µM
GI50 (NCI-H460 lung): 2.88 µM
TGI (NCI-H460 lung): 9.32 µM
GI50 (NCI-H522 lung): 1.56 µM
TGI (NCI-H522 lung): 4.46 µM
GI50 (NCI/ADR-RES ovarian): 3.78 µM
TGI (NCI/ADR-RES ovarian): 19.5 µM
GI50 (PC-3 prostate): 3.08 µM
TGI (PC-3 prostate): 9.77 µM
GI50 (RXF 393 renal): 3.51 µM
TGI (RXF 393 renal): 13.6 µM
GI50 (SF-268 CNS): 8.11 µM
TGI (SF-268 CNS): 31.7 µM
GI50 (SF-295 CNS): 2.8 µM
TGI (SF-295 CNS): 8.47 µM
GI50 (SK-MEL-2 melanoma): 18.1 µM
TGI (SK-MEL-2 melanoma): 51 µM
GI50 (SK-OV-3 ovarian): 14.7 µM
TGI (SK-OV-3 ovarian): 39.8 µM

C=C1C(=O)O[C@H]2[C@H]1CC/C(COC(=O)CSCSCC(=O)OC/C1=C/CC[C@@]3(C)O[C@H]3[C@H]3OC(=O)C(=C)[C@@H]3CC1)=C\CC[C@@]1(C)O[C@@H]21
GI50 (MALME-3M melanoma): 1.58 µM
TGI (MALME-3M melanoma): 3.29 µM
GI50 (NCI-H460 lung): 2.1 µM
TGI (NCI-H460 lung): 4.86 µM
GI50 (NCI-H522 lung): 1.48 µM
TGI (NCI-H522 lung): 3.2 µM
GI50 (NCI/ADR-RES ovarian): 3.25 µM
TGI (NCI/ADR-RES ovarian): 12.3 µM
GI50 (PC-3 prostate): 1.86 µM
TGI (PC-3 prostate): 4.14 µM
GI50 (RXF 393 renal): 1.23 µM
TGI (RXF 393 renal): 2.83 µM
GI50 (SF-268 CNS): 1.79 µM
TGI (SF-268 CNS): 4.31 µM
GI50 (SF-295 CNS): 1.85 µM
TGI (SF-295 CNS): 4.46 µM
GI50 (SK-MEL-2 melanoma): 2.29 µM
TGI (SK-MEL-2 melanoma): 5.24 µM
GI50 (SK-OV-3 ovarian): 5.1 µM
TGI (SK-OV-3 ovarian): 16.5 µM

O=c1[nH]c(=O)c2cn[nH]c2[nH]1
GI50 (MALME-3M melanoma): > 100 µM
TGI (MALME-3M melanoma): > 100 µM
GI50 (NCI-H460 lung): > 100 µM
TGI (NCI-H460 lung): > 100 µM
GI50 (NCI-H522 lung): > 100 µM
TGI (NCI-H522 lung): > 100 µM
GI50 (NCI/ADR-RES ovarian): > 100 µM
TGI (NCI/ADR-RES ovarian): > 100 µM
GI50 (PC-3 prostate): > 100 µM
TGI (PC-3 prostate): > 100 µM
GI50 (RXF 393 renal): > 100 µM
TGI (RXF 393 renal): > 100 µM
GI50 (SF-268 CNS): > 100 µM
TGI (SF-268 CNS): > 100 µM
GI50 (SF-295 CNS): > 100 µM
TGI (SF-295 CNS): > 100 µM
GI50 (SK-MEL-2 melanoma): > 100 µM
TGI (SK-MEL-2 melanoma): > 100 µM
GI50 (SK-OV-3 ovarian): > 100 µM
TGI (SK-OV-3 ovarian): > 100 µM
